Source: patent publication US5322850A, “Antiallergic piperidine derivatives of benzimidazole” (Fabrica Espanola de Productos Quimicos y Farmaceuticos, S.A., priority 1992, dated 1994)
Where “and” joins values, the source holds several entries; their conditions need not be identical. Identical values can stand only once.

Experiments:
[1] = target: H1 (Cavia porcellus, UniProt P31389); assay: H1-antihistaminic activity in vitro: histamine-induced contractions of isolated guinea-pig ileum; conditions: pH 7.4, 37° C., 20 min after antagonist, (n) given
Description: H1 -antihistaminic activity in vitro: Histamine-induced contractions of isolated guinea-pig ileum.
Distal ileum was obtained from male albino guinea pig (300-500 g). All animals were fasted overnight and killed by cervical dislocation and then exsanguinated. […] The tissue was washed by upward displacement of the bathing fluid. With an effective 1.2 g loading tension, the ileum was kept for 45 min (stabilization period). An accumulative dose-response curve for histamine was isotonically recorded with increasing concentrations and the tissue, after washing with Tyrode solution, was allowed to equilibrate. Twenty minutes later a second concentration-response curve was obtained previous addition of different concentrations of antagonist drugs. The results were calculated from the concentration-response curves for histamine at each drug concentration. All the concentrations were tested 2 to 4 times.

[2] = system: H1; assay: H1-antihistaminic activity in vivo: vascular permeability increase induced by histamine in rats; parameters: species or system rat (female Wistar)
Description: H1 -antihistaminic activity in vivo: Vascular permeability increase induced by histamine in rats.
Female Wistar rats (120-150 g) were used. They were fasted for 18 hours prior to the assay. […] 30 min after the dye injection, animals were sacrificed and the skin was removed. The extravasated dye sites were extracted with formamide and the dye spectrophotometrically evaluated.

[3] = system: homologous passive cutaneous anaphylaxis (PCA); assay: Antiallergic activity in vivo: vascular permeability increase induced by 48 hours homologous passive cutaneous anaphylaxis (PCA) in rats; parameters: species or system rat (female Wistar)
Description: Antiallergic activity in vivo: Vascular permeability increase induced by 48 hours homologous passive cutaneous anaphylaxis (PCA) in rats. Female Wistar rats (120-150 g) were used. They were sensitized passively by intradermic injections of homologous ovoalbumin antiserum on both sides of the middle shaved-back line of the rat. Forty-eight hours later each test compound was administered orally at doses of 1 mg/kg (5 mg/kg when R^1 is a methyl group) and 1 h later PCA reaction was induced by iv injection of Evans blue solution and ovoalbumin in PSS solution. The animals were sacrificed 30 minutes after the dye injection and the skin was removed. The extravasated dye sites were extracted with formamide and the dye spectrophotometrically evaluated.

[4] = system: CNS; assay: Preliminary study similar to Irwin's test in mice: effect on CNS; assay type: in vivo; parameters: key: --: If no effects were detected, no figures are shown
Description: A preliminary study similar to Irwins's test in mice was carried out at doses of 100 and 300 mg/kg at 1, 2, 3, 4 and 24 hours after the treatment. As reference ketotifene was used.

[5] = rat, oral, 1 mg/kg, 1 hour before histamine
[6] = rat, oral, 1 mg/kg, 1 h before PCA reaction
[7] = 100 mg/kg, 1, 2, 3, 4 and 24 hours
[8] = 300 mg/kg, 1, 2, 3, 4 and 24 hours

Sequence of H1 (Cavia porcellus, UniProt P31389) (P31389 whole entry): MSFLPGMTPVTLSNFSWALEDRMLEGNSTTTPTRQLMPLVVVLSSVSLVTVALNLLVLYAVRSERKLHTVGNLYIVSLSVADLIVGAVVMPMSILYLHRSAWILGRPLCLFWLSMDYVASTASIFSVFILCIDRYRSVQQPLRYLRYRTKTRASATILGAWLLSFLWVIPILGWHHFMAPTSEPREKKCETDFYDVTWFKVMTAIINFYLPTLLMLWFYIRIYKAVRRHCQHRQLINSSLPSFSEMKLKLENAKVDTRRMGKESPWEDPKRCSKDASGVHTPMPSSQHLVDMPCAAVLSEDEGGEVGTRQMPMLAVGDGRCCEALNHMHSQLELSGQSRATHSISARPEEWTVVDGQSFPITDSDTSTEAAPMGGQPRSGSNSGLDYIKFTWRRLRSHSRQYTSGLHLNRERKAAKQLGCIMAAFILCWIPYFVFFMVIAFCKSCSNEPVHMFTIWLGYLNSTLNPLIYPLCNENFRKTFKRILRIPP

| Structure (SMILES) | pD'2 [1] | Inhibition of the increase of vascular permeability by Histamine [2, 5] | Inhibition of the increase of vascular permeability by P.C.A. [3, 6] | Convulsions [4, 7] | Death [4, 7] | Hypothermia [4, 7] | Loss of pinneal reflex [4, 7] | Loss of right-time reflex [4, 7] | Palpebral Ptosis [4, 7] | Spontaneous Activity decrease [4, 7] | Convulsions [4, 8] | Death [4, 8] | Hypothermia [4, 8] | Loss of pinneal reflex [4, 8] | Loss of right-time reflex [4, 8] | Palpebral Ptosis [4, 8] | Spontaneous Activity decrease [4, 8] | Inhibition of the increase of vascular permeability by Histamine ([2]; po, 5 mg/kg) | Inhibition of the increase of vascular permeability by P.C.A. ([3]; po, 5 mg/kg) | Spontaneous Activity decrease ([4]; 300 mg/kg, 1, 2, 3, 4 and 24 hours, 300 mg/kg) |
| --- | --- | --- | --- | --- | --- | --- | --- | --- | --- | --- | --- | --- | --- | --- | --- | --- | --- | --- | --- | --- |
| CCOCCn1c(C2CCN(Cc3ccc(C(C)(C)C)cc3)CC2)nc2ccccc21 [1 CH2 CH3] | 7.08 | 70% | 47% | -- | -- | -- | -- | -- | -- | -- | 4/4 | -- | -- | -- | -- | -- | 4/4 |  |  |  |
| COCCn1c(C2CCN(Cc3ccc(C(C)(C)C)cc3)CC2)nc2ccccc21 [1 CH3, 2-[1-((4-(1,1-dimethylethyl)phenyl)methyl)piperidine-4-yl]-1-(2-methoxyethyl)-1H-benzimidazole] | 6.75 |  |  | -- | -- | 2/4 | -- | -- | -- | 3/4 | 4/4 | 4/4 | 4/4 | 4/4 | 4/4 | 4/4 | 4/4 | 70% | 70% |  |
| CC(C)OCCn1c(C2CCN(Cc3ccc(C(C)(C)C)cc3)CC2)nc2ccccc21 [1 CH(CH3)2, 2-[1-((4-(1,1-dimethylethyl)phenyl)methyl)piperidin-4-yl]-1-[(2-(1-methylethoxy)ethyl)]-1H-benzimidazole] | 7.30 | 50% | 40% | -- | -- | -- | -- | -- | -- | -- | -- | -- | -- | -- | -- | -- | -- |  |  |  |
| CCOCCn1c(C2CCN(CCc3ccc(C(C)(C)C)cc3)CC2)nc2ccccc21 [2 CH2 CH3, 2-[1-(2-(4-(1,1-dimethylethyl)-phenyl)ethyl)piperidin-4-yl]-1-(2-ethoxyethyl)-1H-benzimidazole] | 7.52 | 60% | 40% | -- | -- | -- | -- | -- | -- | -- | -- | -- | -- | -- | -- | -- |  |  |  | -- and 2/4 |
| CC(C)OCCn1c(C2CCN(CCc3ccc(C(C)(C)C)cc3)CC2)nc2ccccc21 [2 CH(CH3)2, 2-[1-(2-(4-(1,1-dimethylethyl)-phenyl)ethyl)piperidin-4-yl]-1-[2-(1-methylethoxy)ethyl]-1H-benzimidazole] | 7.00 | 25% | 30% |  |  |  |  |  |  |  |  |  |  |  |  |  |  |  |  |  |
| COc1ccc(CCN2CCC(Nc3nc4ccccc4n3Cc3ccc(F)cc3)CC2)cc1 [Astemizole, reference compound] |  |  | 38% |  |  |  |  |  |  |  |  |  |  |  |  |  |  |  |  |  |
| CN1CCC(=C2c3ccccc3CC(=O)c3sccc32)CC1 [Ketotifene, reference compound] |  |  |  | -- | -- | -- | -- | -- | -- | -- | -- | -- | 1/4 | -- | 1/4 | 1/4 | 2/4 |  |  |  |
| CC(C)(C)c1ccc(C(O)CCCN2CCC(C(O)(c3ccccc3)c3ccccc3)CC2)cc1 (stereo not shown) [Terfenadine, reference compound] |  | 20% | 37% |  |  |  |  |  |  |  |  |  |  |  |  |  |  |  |  |  |
